The record followed here is ChEMBL document CHEMBL1134983, “Core-modified sordaricin derivatives: synthesis and antifungal activity” (2002).

≈ marks a conversion by molar mass, not a printed value.

Type in all cases: functional
Assay [1] relates to Nakaseomyces glabratus. Put plainly: Anti-fungal activity against Candida glabrata A28790 (WT).
Assay [2] relates to Candida albicans. Briefly: Anti-fungal activity against Candida albicans A28235 (WT).
Assay [3] has as its system Candida albicans. Put plainly: Anti-fungal activity against Candida albicans A28660 (WT).

As to `CCCCCCOCC12C[C@@H]3[C@H](C)CC[C@H]3C3(C=O)CC1C=C(C(C)C)[C@@]23C(=O)O`, the MIC came to 0.125 µg/mL (≈ 0.3 µM) in assay [1], 0.06 µg/mL (≈ 0.144 µM) in assay [2] and 0.06 µg/mL (≈ 0.144 µM) in assay [3].

For the molecule `CCCCCCOCC12C[C@@H]3[C@H](C)C(=O)C[C@H]3C3(C=O)CC1C=C(C(C)C)[C@@]23C(=O)O`, the results for the minimum inhibitory concentration (MIC) in assay [1], in assay [2] and in assay [3] were 32 µg/mL (≈ 74.3 µM), 4 µg/mL (≈ 9.29 µM) and 8 µg/mL (≈ 18.6 µM), respectively.

As for `CCCCCCOCC12C[C@@H]3[C@H](C)[C@@H](O)C[C@H]3C3(C=O)CC1C=C(C(C)C)[C@@]23C(=O)O`, the MIC was more than 128 µg/mL in assay [1], 32 µg/mL (≈ 74 µM) in assay [2] and 64 µg/mL (≈ 148 µM) in assay [3].

On to `CCCCCCOCC12C[C@H]3[C@@H](CC[C@]3(C)O)C3(C=O)CC1C=C(C(C)C)[C@@]23C(=O)O`, for which the MIC in assay [1] came to 32 µg/mL (≈ 74 µM); in assay [2], 4 µg/mL (≈ 9.25 µM); in assay [3], 8 µg/mL (≈ 18.5 µM).

On to `COC1C(O)[C@H](O)[C@H](OC[C@@]23C[C@@H]4[C@H](C)CC[C@H]4[C@@]4(C=O)CC2C=C(C(C)C)[C@@]34C(=O)O)O[C@@H]1C` (single isomer, unassigned) [SORDARIN], for which the MIC in assay [1] was more than 128 µg/mL; in assay [2], 16 µg/mL (≈ 32.5 µM).

On to `CCCCCCOCC12CC3=C(C)CC[C@H]3C3(C=O)CC1C=C(C(C)C)[C@@]23C(=O)O`, for which the results for the MIC in assay [1], in assay [2] and in assay [3] were 8 µg/mL (≈ 19.3 µM), 0.125 µg/mL (≈ 0.302 µM) and 0.5 µg/mL (≈ 1.21 µM), respectively.

Regarding `CCCCCCOCC12C[C@@H]3[C@H](C)[C@H](F)C[C@H]3C3(C=O)CC1C=C(C(C)C)[C@@]23C(=O)O`, the results for the MIC in assay [1], in assay [2] and in assay [3] were 1 µg/mL (≈ 2.3 µM), 0.25 µg/mL (≈ 0.575 µM) and 0.5 µg/mL (≈ 1.15 µM), respectively.

In the case of `CCCCCCOCC12C[C@@]34[C@@H](CC[C@]3(C)C4(Cl)Cl)C3(C=O)CC1C=C(C(C)C)[C@@]23C(=O)O`, the MIC in assay [1] is 64 µg/mL (≈ 129 µM); in assay [2], 32 µg/mL (≈ 64.3 µM); in assay [3], 32 µg/mL (≈ 64.3 µM).

As usually defined, the MIC is the least concentration at which growth counts as inhibited. High values mean a need for much substance, low ones inhibition by little substance.
